A short description of assay [1]: A cytotoxicity screen of small molecule inhibitors of the PhoP region in Salmonella typhi identified in the primary screen. [Related pubchem assays: 1850, 1864, 1985 ]. Type of assay: functional.
Assay [2] concerns the target Transitional endoplasmic reticulum ATPase (Homo sapiens, UniProt P55072, C522A). Put plainly: C522A mutant p97 ATPase inhibitors, dose response, counter-screen for p97 inhibitor project, biochemical, luminescence (AID 1544). Background: Counterscreens check selectivity or assay interference.
The target in a further assay is NS3 (Hepatitis C virus, UniProt A3EZJ3). As to the kind of experiment: PubChem AID 2173. The arrangement: species or system Hepacivirus hominis.
The target in assay [3] is Transitional endoplasmic reticulum ATPase (Homo sapiens, UniProt P55072). As to the kind of experiment: p97 ATPase inhibitors, dose response, biochemical (AID 1534).
In a further assay the test system is HeLa. Put plainly: HeLa cell cytotoxicity, dose response, cytotoxicity control, 24 h, cherry-picked samples (AID 504726).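 Note: potency for cytotoxicity as loss of luminescence signal.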 The following applies: Homo sapiens. Type of assay: functional, cell-based.
A further assay deals with Salmon testes DNA. As to the kind of experiment: DNA intercalators displacing acridine orange, dose response, artefact control for KSHV LANA DNA-binding inhibitor project, biochemical, fluorescence polarization, cherry-picked samples, set 2 (AID 504727). The arrangement: species or system Salmonidae. A general note: Polarisation of emitted light reports the rotation of a fluorescent probe.

Another assay deals with T1, Protein RecA (Mycobacterium tuberculosis, UniProt P9WHJ3).
T1 sequence (P9WHJ3 whole entry): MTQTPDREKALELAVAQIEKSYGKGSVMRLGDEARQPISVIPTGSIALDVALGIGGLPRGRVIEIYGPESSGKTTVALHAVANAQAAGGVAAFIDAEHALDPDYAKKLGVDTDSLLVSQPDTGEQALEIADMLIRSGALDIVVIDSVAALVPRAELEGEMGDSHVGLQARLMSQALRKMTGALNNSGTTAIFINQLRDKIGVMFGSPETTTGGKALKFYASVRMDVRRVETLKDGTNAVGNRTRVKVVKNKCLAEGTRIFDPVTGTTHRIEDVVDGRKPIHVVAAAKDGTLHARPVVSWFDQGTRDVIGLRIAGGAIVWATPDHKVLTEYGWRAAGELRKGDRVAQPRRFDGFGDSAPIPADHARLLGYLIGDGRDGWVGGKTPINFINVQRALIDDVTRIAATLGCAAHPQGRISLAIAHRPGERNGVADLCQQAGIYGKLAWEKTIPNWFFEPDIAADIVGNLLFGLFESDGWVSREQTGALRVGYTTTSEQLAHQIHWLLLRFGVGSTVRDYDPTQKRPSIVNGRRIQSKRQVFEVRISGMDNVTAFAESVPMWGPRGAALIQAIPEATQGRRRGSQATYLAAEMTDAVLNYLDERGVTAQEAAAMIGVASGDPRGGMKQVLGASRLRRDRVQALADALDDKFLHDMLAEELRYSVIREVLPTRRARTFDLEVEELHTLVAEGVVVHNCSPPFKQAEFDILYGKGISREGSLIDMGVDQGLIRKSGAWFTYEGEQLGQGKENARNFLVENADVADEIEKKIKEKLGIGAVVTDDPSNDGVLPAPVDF
Put plainly: Fluorescence Cell-Free Homogeneous Dose Retest to Identify Inhibitors of RecA-Intein Splicing Activity. [Related pubchem assays (depositor defined):AID2097, AID2223, AID489010, AID492950]. Type of assay: functional.

Assay [4] deals with T2, Histone-lysine N-methyltransferase NSD2 (Homo sapiens, UniProt O96028).
T2 sequence (O96028 whole entry): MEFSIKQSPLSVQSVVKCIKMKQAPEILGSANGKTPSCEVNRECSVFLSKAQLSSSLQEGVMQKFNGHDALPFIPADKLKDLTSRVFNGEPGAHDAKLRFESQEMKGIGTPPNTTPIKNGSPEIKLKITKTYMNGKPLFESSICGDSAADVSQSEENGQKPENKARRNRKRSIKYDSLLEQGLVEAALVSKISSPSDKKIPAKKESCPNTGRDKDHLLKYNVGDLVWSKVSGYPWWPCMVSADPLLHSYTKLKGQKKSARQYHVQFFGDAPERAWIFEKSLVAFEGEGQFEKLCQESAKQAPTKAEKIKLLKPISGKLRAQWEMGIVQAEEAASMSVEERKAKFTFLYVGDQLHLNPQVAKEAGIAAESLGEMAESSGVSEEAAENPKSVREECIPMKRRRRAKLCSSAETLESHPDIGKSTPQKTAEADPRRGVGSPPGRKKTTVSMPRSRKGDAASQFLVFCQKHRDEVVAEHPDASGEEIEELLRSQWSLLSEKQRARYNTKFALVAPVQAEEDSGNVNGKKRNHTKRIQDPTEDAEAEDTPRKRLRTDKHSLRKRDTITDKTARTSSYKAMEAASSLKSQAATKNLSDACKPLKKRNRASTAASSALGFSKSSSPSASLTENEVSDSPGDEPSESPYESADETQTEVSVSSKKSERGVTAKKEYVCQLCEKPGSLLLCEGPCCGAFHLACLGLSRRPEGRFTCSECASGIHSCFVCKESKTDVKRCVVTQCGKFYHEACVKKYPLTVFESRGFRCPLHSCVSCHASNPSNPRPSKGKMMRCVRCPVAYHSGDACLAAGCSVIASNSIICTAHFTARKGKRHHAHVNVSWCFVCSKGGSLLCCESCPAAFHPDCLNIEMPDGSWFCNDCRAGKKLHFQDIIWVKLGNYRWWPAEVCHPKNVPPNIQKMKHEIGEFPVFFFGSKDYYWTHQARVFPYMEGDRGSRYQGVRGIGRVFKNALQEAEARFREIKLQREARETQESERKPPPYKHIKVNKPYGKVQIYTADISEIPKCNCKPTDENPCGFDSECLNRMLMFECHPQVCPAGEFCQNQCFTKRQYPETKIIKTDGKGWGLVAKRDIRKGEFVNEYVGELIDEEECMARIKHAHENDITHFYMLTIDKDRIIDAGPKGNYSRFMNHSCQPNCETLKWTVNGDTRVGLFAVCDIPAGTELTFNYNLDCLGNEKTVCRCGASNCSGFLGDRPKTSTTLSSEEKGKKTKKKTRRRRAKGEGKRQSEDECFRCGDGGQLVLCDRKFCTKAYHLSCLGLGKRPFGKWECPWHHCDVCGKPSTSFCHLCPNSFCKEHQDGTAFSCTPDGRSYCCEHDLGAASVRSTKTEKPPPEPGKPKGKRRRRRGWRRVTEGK
Type of assay: biochemical.

For another assay, the target named is Protein Rev (Human immunodeficiency virus type 1 group M subtype B (isolate HXB2)(HIV-1), UniProt P04618). As to the kind of experiment: inhibitors of Rev binding to RRE RNA, dose response, biochemical, fluorescence polarization, HIV-1 (AID 434976). The arrangement: species or system Human immunodeficiency virus 1.
For assay [5], the target named is Female germline-specific tumor suppressor gld-1 (Caenorhabditis elegans, UniProt Q17339). Put plainly: inhibitors of GLD-1 binding to TGE RNA, dose response, biochemical, fluorescence polarization, C. elegans (AID 2802).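 Note: fluorescence polarization of labeled TGE RNA bound by purified gld-1 protein.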

Among the data in ChEMBL document CHEMBL1201862, “PubChem BioAssay data set” (2004) are EC50, IC50 and AC50 values, retold here.

SMILES strings stand for the structures. The source made the active and inactive calls.

Chain of NS3 (A3EZJ3 whole entry): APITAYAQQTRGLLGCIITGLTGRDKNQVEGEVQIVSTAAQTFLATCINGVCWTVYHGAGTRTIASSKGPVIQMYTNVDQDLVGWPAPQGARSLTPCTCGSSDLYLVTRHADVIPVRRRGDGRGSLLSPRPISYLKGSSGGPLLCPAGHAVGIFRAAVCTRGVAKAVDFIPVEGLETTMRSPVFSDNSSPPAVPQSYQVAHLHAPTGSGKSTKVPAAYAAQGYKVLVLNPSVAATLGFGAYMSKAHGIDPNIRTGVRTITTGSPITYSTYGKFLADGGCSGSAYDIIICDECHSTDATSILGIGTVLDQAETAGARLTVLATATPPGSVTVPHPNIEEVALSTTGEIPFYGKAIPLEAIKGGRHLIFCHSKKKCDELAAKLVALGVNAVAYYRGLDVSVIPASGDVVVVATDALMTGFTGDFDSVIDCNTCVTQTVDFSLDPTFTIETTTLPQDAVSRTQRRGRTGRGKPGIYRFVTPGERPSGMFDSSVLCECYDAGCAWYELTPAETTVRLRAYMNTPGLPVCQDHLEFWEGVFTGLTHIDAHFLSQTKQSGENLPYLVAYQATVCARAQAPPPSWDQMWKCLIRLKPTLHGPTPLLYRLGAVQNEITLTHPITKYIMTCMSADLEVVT
Chain of Transitional endoplasmic reticulum ATPase (Homo sapiens, UniProt P55072) (P55072 whole entry): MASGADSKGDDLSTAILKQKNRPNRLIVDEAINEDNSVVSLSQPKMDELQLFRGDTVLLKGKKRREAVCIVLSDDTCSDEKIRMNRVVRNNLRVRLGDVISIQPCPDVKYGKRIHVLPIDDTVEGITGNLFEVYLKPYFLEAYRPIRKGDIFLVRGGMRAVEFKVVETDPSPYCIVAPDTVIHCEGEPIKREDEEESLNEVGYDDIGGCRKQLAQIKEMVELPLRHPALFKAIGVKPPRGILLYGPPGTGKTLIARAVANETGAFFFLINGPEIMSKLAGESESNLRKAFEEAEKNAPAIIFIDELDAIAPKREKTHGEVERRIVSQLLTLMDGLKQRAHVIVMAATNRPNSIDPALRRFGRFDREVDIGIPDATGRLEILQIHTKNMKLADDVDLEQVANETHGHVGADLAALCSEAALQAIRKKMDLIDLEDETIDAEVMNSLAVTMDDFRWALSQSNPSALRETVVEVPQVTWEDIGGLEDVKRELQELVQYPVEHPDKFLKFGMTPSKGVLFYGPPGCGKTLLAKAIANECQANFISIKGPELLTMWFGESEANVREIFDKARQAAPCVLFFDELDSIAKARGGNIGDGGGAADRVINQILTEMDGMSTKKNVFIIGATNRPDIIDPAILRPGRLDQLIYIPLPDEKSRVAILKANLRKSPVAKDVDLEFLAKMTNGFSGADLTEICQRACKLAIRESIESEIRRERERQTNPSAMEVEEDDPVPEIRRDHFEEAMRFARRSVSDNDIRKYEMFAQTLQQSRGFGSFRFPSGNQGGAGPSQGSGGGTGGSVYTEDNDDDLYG
Chain of Female germline-specific tumor suppressor gld-1 (Q17339 whole entry): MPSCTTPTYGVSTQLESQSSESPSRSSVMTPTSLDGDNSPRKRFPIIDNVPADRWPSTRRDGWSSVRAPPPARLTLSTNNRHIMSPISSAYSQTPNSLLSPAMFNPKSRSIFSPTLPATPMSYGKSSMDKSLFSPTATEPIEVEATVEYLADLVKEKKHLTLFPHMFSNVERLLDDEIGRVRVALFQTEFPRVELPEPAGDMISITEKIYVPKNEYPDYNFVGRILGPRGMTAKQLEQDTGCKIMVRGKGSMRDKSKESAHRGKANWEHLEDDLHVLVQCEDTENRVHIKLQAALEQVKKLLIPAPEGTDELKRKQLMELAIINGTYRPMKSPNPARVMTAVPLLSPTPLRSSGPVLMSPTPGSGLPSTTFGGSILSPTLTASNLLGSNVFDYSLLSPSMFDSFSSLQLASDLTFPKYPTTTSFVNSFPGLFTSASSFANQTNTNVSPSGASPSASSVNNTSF
Chain of Protein Rev (P04618 whole entry): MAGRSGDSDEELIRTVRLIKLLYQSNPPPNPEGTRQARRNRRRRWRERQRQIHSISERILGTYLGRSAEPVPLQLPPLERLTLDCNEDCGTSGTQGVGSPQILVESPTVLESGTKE
Chain of Transitional endoplasmic reticulum ATPase (Homo sapiens, UniProt P55072, C522A) (P55072 2-806 C522A limits assumed): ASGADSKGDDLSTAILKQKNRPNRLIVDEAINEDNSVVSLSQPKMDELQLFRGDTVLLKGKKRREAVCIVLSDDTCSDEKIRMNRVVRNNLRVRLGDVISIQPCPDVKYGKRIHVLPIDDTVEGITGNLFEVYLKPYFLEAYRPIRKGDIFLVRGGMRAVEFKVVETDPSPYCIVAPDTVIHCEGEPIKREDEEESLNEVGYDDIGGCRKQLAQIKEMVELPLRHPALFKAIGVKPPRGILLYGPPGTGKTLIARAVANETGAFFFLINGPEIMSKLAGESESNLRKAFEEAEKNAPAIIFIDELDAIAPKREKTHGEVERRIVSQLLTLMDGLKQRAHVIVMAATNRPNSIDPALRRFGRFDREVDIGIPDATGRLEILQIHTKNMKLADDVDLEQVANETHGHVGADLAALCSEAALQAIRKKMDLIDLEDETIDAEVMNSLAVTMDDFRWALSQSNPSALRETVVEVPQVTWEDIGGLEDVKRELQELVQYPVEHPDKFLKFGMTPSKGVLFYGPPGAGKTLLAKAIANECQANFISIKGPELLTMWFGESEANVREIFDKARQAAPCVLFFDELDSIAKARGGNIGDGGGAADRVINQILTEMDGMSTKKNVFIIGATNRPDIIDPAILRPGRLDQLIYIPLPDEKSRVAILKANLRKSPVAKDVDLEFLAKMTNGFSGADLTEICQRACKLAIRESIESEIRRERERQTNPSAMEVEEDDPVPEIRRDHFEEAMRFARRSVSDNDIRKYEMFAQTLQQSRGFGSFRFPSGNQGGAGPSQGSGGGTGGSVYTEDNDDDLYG

Regarding `CCCCn1c(NS(=O)(=O)c2ccc(C)cc2)c(S(=O)(=O)c2ccccc2)c2nc3ccccc3nc21`, the 50% effective concentration (EC50) (commonly the concentration giving half of the maximal effect) in [1] is > 50 µM (active); at Protein RecA, > 380 µM (inconclusive). Further, the 50% inhibitory concentration (IC50) (in general, the concentration that inhibits the measured activity by half) in assay [2] is > 50 µM (not active); on NS3, 662 nM (active); in assay [3], > 50 µM (not active). Further, the AC50 (in general, the concentration at which the activity in the assay is half-maximal) in the assay on HeLa is 313 µM (active); with Salmon testes DNA, 43.7 µM (active); in [4] it was 12.2 µM (active).
For the compound `Nc1cccc2c1C(=O)N(Cc1cccc(Cl)c1)C2=O`, the IC50 at Protein Rev is 17.9 µM (not active); in assay [5], 4.97 µM (active).
